Columns and labels:
Assay type in all cases: functional
MDA-MB-231 = assay: Cytotoxicity against human MDA-MB-231 cells after 48 hrs by sulforhodamine B assay; details: MDA-MB-231, 48 h
SNB-78 = assay: Cytotoxicity against human SNB78 cells after 48 hrs by sulforhodamine B assay; details: SNB-78, 48 h
OVCAR-4 = assay: Cytotoxicity against human OVCAR4 cells after 48 hrs by sulforhodamine B assay; details: OVCAR-4, 48 h
MKN-7 = assay: Cytotoxicity against human MKN7 cells after 48 hrs by sulforhodamine B assay; details: MKN-7, 48 h
SF-268 = assay: Cytotoxicity against human SF268 cells after 48 hrs by sulforhodamine B assay; details: SF-268, 48 h
[1] = Cytotoxicity against human HBC5 cells after 48 hrs by sulforhodamine B assay; details: HBC5, 48 h
KM12 = assay: Cytotoxicity against human KM12 cells after 48 hrs by sulforhodamine B assay; details: KM12, 48 h
HT-29 = assay: Cytotoxicity against human HT-29 cells after 48 hrs by sulforhodamine B assay; details: HT-29, 48 h
MKN-28 = assay: Cytotoxicity against human MKN28 cells after 48 hrs by sulforhodamine B assay; details: MKN-28, 48 h
HCC 2998 = assay: Cytotoxicity against human HCC2998 cells after 48 hrs by sulforhodamine B assay; details: HCC 2998, 48 h
OVCAR-8 = assay: Cytotoxicity against human OVCAR8 cells after 48 hrs by sulforhodamine B assay; details: OVCAR-8, 48 h
MKN-45 = assay: Cytotoxicity against human MKN45 cells after 48 hrs by sulforhodamine B assay; details: MKN-45, 48 h
MKN-74 = assay: Cytotoxicity against human MKN74 cells after 48 hrs by sulforhodamine B assay; details: MKN-74, 48 h
HCT-116 = assay: Cytotoxicity against human HCT116 cells after 48 hrs by sulforhodamine B assay; details: HCT-116, 48 h
ACHN = assay: Cytotoxicity against human ACHN cells after 48 hrs by sulforhodamine B assay
MCF7 = assay: Cytotoxicity against human MCF7 cells after 48 hrs by sulforhodamine B assay; details: MCF7, 48 h
[2] = Cytotoxicity against human MKN1 cells after 48 hrs by sulforhodamine B assay; details: MKN-1, 48 h
SNB-75 = assay: Cytotoxicity against human SNB75 cells after 48 hrs by sulforhodamine B assay; details: SNB-75, 48 h
HCT-15 = assay: Cytotoxicity against human HCT15 cells after 48 hrs by sulforhodamine B assay; details: HCT-15, 48 h
NCI-H522 = assay: Cytotoxicity against human NCI-H522 cells after 48 hrs by sulforhodamine B assay; details: NCI-H522, 48 h
NCI-H23 = assay: Cytotoxicity against human NCI-H23 cells after 48 hrs by sulforhodamine B assay; details: NCI-H23, 48 h
[3] = Cytotoxicity against human HBC4 cells after 48 hrs by sulforhodamine B assay; details: HBC4, 48 h
NCI-H460 = assay: Cytotoxicity against human NCI-H460 cells after 48 hrs by sulforhodamine B assay; details: NCI-H460, 48 h
SF-295 = assay: Cytotoxicity against human SF295 cells after 48 hrs by sulforhodamine B assay; details: SF-295, 48 h
[4] = Cytotoxicity against human RXF631L cells after 48 hrs by sulforhodamine B assay; details: RXF 631, 48 h
A549 = assay: Cytotoxicity against human A549 cells after 48 hrs by sulforhodamine B assay; details: A549, 48 h
OVCAR-3 = assay: Cytotoxicity against human OVCAR3 cells after 48 hrs by sulforhodamine B assay; details: OVCAR-3, 48 h
SF-539 = assay: Cytotoxicity against human SF539 cells after 48 hrs by sulforhodamine B assay; details: SF-539, 48 h
DMS-114 = assay: Cytotoxicity against human DMS114 cells after 48 hrs by sulforhodamine B assay; details: DMS-114, 48 h
DMS-273 = assay: Cytotoxicity against human DMS273 cells after 48 hrs by sulforhodamine B assay; details: DMS-273, 48 h
St-4 = assay: Cytotoxicity against human St-4 cells after 48 hrs by sulforhodamine B assay; details: St-4, 48 h
NCI-H226 = assay: Cytotoxicity against human NCI-H226 cells after 48 hrs by sulforhodamine B assay; details: NCI-H226, 48 h
DU-145 = assay: Cytotoxicity against human DU145 cells after 48 hrs by sulforhodamine B assay; details: DU-145, 48 h
LOX IMVI = assay: Cytotoxicity against human LOXIMVI cells after 48 hrs by sulforhodamine B assay
[5] = Cytotoxicity against human BSY1 cells after 48 hrs by sulforhodamine B assay; details: BSY-1, 48 h
SK-OV-3 = assay: Cytotoxicity against human SKOV3 cells after 48 hrs by sulforhodamine B assay; details: SK-OV-3, 48 h
PC-3 = assay: Cytotoxicity against human PC3 cells after 48 hrs by sulforhodamine B assay; details: PC-3, 48 h
OVCAR-5 = assay: Cytotoxicity against human OVCAR5 cells after 48 hrs by sulforhodamine B assay; details: OVCAR-5, 48 h
U-251 = assay: Cytotoxicity against human U251 cells after 48 hrs by sulforhodamine B assay; details: U-251, 48 h

| Structure (SMILES) | GI50 (MDA-MB-231) | GI50 (SNB-78) | GI50 (OVCAR-4) | GI50 (MKN-7) | GI50 (SF-268) | GI50 [1] | GI50 (KM12) | GI50 (HT-29) | GI50 (MKN-28) | GI50 (HCC 2998) | GI50 (OVCAR-8) | GI50 (MKN-45) | GI50 (MKN-74) | GI50 (HCT-116) | GI50 (ACHN) | GI50 (MCF7) | GI50 [2] | GI50 (SNB-75) | GI50 (HCT-15) | GI50 (NCI-H522) | other results |
| --- | --- | --- | --- | --- | --- | --- | --- | --- | --- | --- | --- | --- | --- | --- | --- | --- | --- | --- | --- | --- | --- |
| CCCCCCCCCCCC[C@@H](O)[C@H]1CC[C@H]([C@H](O)CCCCCCCCCCCCC2=C[C@H](CF)OC2=O)O1 | 59 µM | > 100 µM | > 100 µM | 19 µM | > 100 µM | 32 µM | > 100 µM | 63 µM | 7.8 µM | > 100 µM | 16 µM | 76 µM | 40 µM | 16 µM | > 100 µM | 45 µM | 58 µM | 63 µM | > 100 µM | 15 µM | GI50 (NCI-H23): 12 µM; GI50 [3]: > 100 µM; GI50 (NCI-H460): 79 µM; GI50 (SF-295): 36 µM; GI50 [4]: > 100 µM; GI50 (A549): 76 µM; GI50 (OVCAR-3): > 100 µM; GI50 (SF-539): > 100 µM; GI50 (DMS-114): 6.9 µM; GI50 (DMS-273): 48 µM; GI50 (St-4): 37 µM; GI50 (NCI-H226): 51 µM; GI50 (DU-145): > 100 µM; GI50 (LOX IMVI): > 100 µM; GI50 [5]: 60 µM; GI50 (SK-OV-3): > 100 µM; GI50 (PC-3): 24 µM; GI50 (OVCAR-5): > 100 µM; GI50 (U-251): > 100 µM |
| CCCCCCCCCCCC[C@@H](O)[C@H]1CC[C@H]([C@H](O)CCCCCCCCCCCCC2=C[C@H](C(F)F)OC2=O)O1 | > 100 µM | > 100 µM | 87 µM | 19 µM | > 100 µM | 11 µM | > 100 µM | > 100 µM | 96 µM | > 100 µM | 85 µM | > 100 µM | 57 µM | > 100 µM | > 100 µM | 61 µM | 67 µM | > 100 µM | 82 µM | 24 µM | GI50 (NCI-H23): 75 µM; GI50 [3]: 32 µM; GI50 (NCI-H460): > 100 µM; GI50 (SF-295): 44 µM; GI50 [4]: > 100 µM; GI50 (A549): > 100 µM; GI50 (OVCAR-3): > 100 µM; GI50 (SF-539): 79 µM; GI50 (DMS-114): 24 µM; GI50 (DMS-273): 16 µM; GI50 (St-4): > 100 µM; GI50 (NCI-H226): 63 µM; GI50 (DU-145): > 100 µM; GI50 (LOX IMVI): 15 µM; GI50 [5]: > 100 µM; GI50 (SK-OV-3): > 100 µM; GI50 (PC-3): 60 µM; GI50 (OVCAR-5): > 100 µM; GI50 (U-251): > 100 µM |
| CCCCCCCCCCCC[C@@H](O)[C@H]1CC[C@H]([C@H](O)CCCCCCCCCCCCC2=C[C@H](C(F)(F)F)OC2=O)O1 | > 100 µM | > 100 µM | > 100 µM | 89 µM | > 100 µM | > 100 µM | > 100 µM | > 100 µM | > 100 µM | > 100 µM | > 100 µM | > 100 µM | > 100 µM | > 100 µM | > 100 µM | 80 µM | > 100 µM | > 100 µM | > 100 µM | 53 µM | GI50 (NCI-H23): > 100 µM; GI50 [3]: > 100 µM; GI50 (NCI-H460): > 100 µM; GI50 (SF-295): 72 µM; GI50 [4]: > 100 µM; GI50 (A549): > 100 µM; GI50 (OVCAR-3): > 100 µM; GI50 (SF-539): > 100 µM; GI50 (DMS-114): 52 µM; GI50 (DMS-273): > 100 µM; GI50 (St-4): > 100 µM; GI50 (NCI-H226): 88 µM; GI50 (DU-145): > 100 µM; GI50 (LOX IMVI): > 100 µM; GI50 [5]: > 100 µM; GI50 (SK-OV-3): > 100 µM; GI50 (PC-3): > 100 µM; GI50 (OVCAR-5): > 100 µM; GI50 (U-251): > 100 µM |
| CCCCCCCCCCCC[C@@H](O)[C@H]1CC[C@H]([C@H](O)CCCCCCCCCCCCC2=C[C@H](C)OC2=O)O1 [REL-SOLAMIN] | > 100 µM | > 100 µM | > 100 µM | 13 µM | > 100 µM | > 100 µM | > 100 µM | > 100 µM | 14 µM | > 100 µM | > 100 µM | > 100 µM | > 100 µM | > 100 µM | > 100 µM | 71 µM | > 100 µM | > 100 µM | > 100 µM | 58 µM | GI50 (NCI-H23): 73 µM; GI50 [3]: > 100 µM; GI50 (NCI-H460): > 100 µM; GI50 (SF-295): 40 µM; GI50 [4]: > 100 µM; GI50 (A549): > 100 µM; GI50 (OVCAR-3): > 100 µM; GI50 (SF-539): > 100 µM; GI50 (DMS-114): 4.3 µM; GI50 (DMS-273): > 100 µM; GI50 (St-4): > 100 µM; GI50 (NCI-H226): > 100 µM; GI50 (DU-145): > 100 µM; GI50 (LOX IMVI): 29 µM; GI50 [5]: > 100 µM; GI50 (SK-OV-3): > 100 µM; GI50 (PC-3): > 100 µM; GI50 (OVCAR-5): > 100 µM; GI50 (U-251): > 100 µM |
